Laboratory results: patent US20120295920A1, “5-AMINO-4-HYDROXYPENTOYL AMIDES” (priority 2009, published 2012)
Read-outs that look alike come from different tables or passages of the source.

Tests used:
HIV-1 wild-type strain = experiment: General antiviral assay, cell-based virus replication in MT4-LTR-EGFP cells, wild-type strain; conditions: wild-type strain IIIB, MT4-LTR-EGFP cells
Description: (§1) MT4-LTR-EGFP cells were obtained by transfecting MT4 cells with a selectable construct encompassing the sequences coding for the HIV long terminal repeat (LTR) as a promoter for the expression of enhanced green fluorescent protein (EGFP) and subsequent selection of permanently transfected cells.
(§2) The antiviral activity on different HIV-1 strains, was determined in a cell-based virus replication assay. Here MT4-LTR-EGFP cells (150,000 cells/ml) are infected (multiplicity of infection [MOI] of 0.0025) in the presence or absence of different inhibitor concentrations. Two methodologies for read-out were used, either quantification of GFP-fluoresence on day 3 post-infection, or quantification of cell-viability using rezazurin (as described by Fields, R. D., and M. V. Lancaster (1993) Am. Biotechnol. Lab. 11:48-50) on day 4 post infection.

[1] = test system: HIV-1 Strain A (M046I, I084V); experiment: microbe, parasite or virus in culture; assay type: cell-based; conditions: clinical isolate Strain A; read-out: A EC50
Description: as §1, §2
(§3) In the following Table, Strains A, B, and C are clinical isolates that include the following protease inhibitor resistance mutations in the protease domain (background mutations are not mentioned).

[2] = test system: HIV-1 Strain B (M046I, I050V); experiment: microbe, parasite or virus in culture; assay type: cell-based; conditions: clinical isolate Strain B; read-out: B EC50
Description: as §1, §2, §3

[3] = test system: HIV-1 Strain C (G048G/V, V082A); experiment: microbe, parasite or virus in culture; assay type: cell-based; conditions: clinical isolate Strain C; read-out: C EC50
Description: as §1, §2, §3

mock-infected MT4 cells = experiment: General toxicity assay on mock-infected MT4 cells with CMV-EGFP reporter (CC50); assay type: cell-based
HIV-1 IIIB = experiment: 50% HS-Rezazurin: antiviral assay in the presence of 50% human serum, MT-4 cells, resazurin cell viability; assay type: cell-based
Description: For the Antiviral assay in the presence of 50% human serum MT-4 cells were infected with HIV-1 IIIB at a MOI of 0.001 to 0.01 CCID50/cell in RPMI1640 medium. Following 1 h of incubation, cells were washed and plated into a 96-well plate containing serial dilutions of compound in the presence of 10% fetal calf serum (FCS), or 50% human serum. After 4 days incubation, the EC50 in the presence of 50% human serum was determined by a cell viability assay using resazurin.
The last column lists the results for the wild-type strain IIB in the presence of 50% human serum MT-4 cells.

[4] = MT4LTR cells, read-out: TOX-MT4LTR (CC50)
[5] = mock-infected MT4 cells with CMV-EGFP reporter, read-out: TOX-MT4CMV (CC50)

SMILES	EC50 (HIV-1 wild-type strain) [nM]	EC50 [1] [nM]	EC50 [2] [nM]	EC50 [3] [nM]	CC50 (mock-infected MT4 cells; [4]) [nM]	CC50 (mock-infected MT4 cells; [5]) [nM]	EC50 (HIV-1 IIIB) [nM]
COC(=O)N[C@H](C(=O)N[C@@H](Cc1ccc(-c2ccc(OC)nc2)cc1)[C@@H](O)C[C@@H](Cc1ccccc1Cl)C(=O)N[C@H]1[C@H](C)CCC[C@H]1O)C(C)(C)C [Compound 91]	1.1	2.6	0.7	1	16000	17000	3.2
COC(=O)N[C@H](C(=O)N[C@@H](Cc1ccc(-c2cc(C)nc(C)c2)cc1)[C@@H](O)C[C@@H](Cc1ccccc1F)C(=O)N[C@H]1c2cccc(Cl)c2OC[C@H]1O)C(C)(C)C [Compound 54]	4.8	2.7	2.1	1.6	> 32000		19.8
COc1ccc(-c2ccc(C[C@H](NC(=O)O[C@H]3CO[C@H]4OCC[C@H]43)[C@@H](O)C[C@@H](Cc3ccccc3Cl)C(=O)N[C@H]3c4cc(F)ccc4OC[C@H]3O)cc2)cn1 [Compound 77]	1.9	1.6	1	0.7	> 32000		6.5
COCCOC(=O)N[C@H](C(=O)N[C@@H](Cc1ccc(-c2ccc(N(C)C)nc2)cc1)[C@@H](O)C[C@@H](Cc1ccccc1F)C(=O)N[C@H]1c2cc(F)ccc2OC[C@H]1O)C(C)(C)C [Compound 34]	2.7	2	1.5	1.3	> 32000	> 32000	10
COC(=O)N[C@H](C(=O)N[C@@H](Cc1ccc(-c2cnc(OC)nc2)cc1)[C@@H](O)C[C@@H](Cc1cccc(F)c1)C(=O)N[C@H]1c2cc(F)ccc2OC[C@H]1O)C(C)(C)C [Compound 65]	9.1	4.5	3.6	2.3	> 32000		24.7
COCCOC(=O)N[C@H](C(=O)N[C@@H](Cc1ccc(-c2ccc(OC)nc2)cc1)[C@@H](O)C[C@@H](Cc1ccccc1F)C(=O)N[C@H]1c2cc(Cl)ccc2OC[C@H]1O)C(C)(C)C [Compound 55]	2.7	2.1	1.5	1.2	> 32000		12.5
COC(=O)NC(C(=O)NC(Cc1ccc(-c2ccc(OC)nc2)cc1)C(O)CC(Cc1ccccc1F)C(=O)NC1CCCCC1O)C(C)(C)C (stereo not shown) [Compound 100]	1.8	1.8	0.7	0.8	> 32000		5.9
COC(=O)NC(C(=O)NC(Cc1ccc(-c2cnc(N(C)C)cn2)cc1)C(O)CC(Cc1ccccc1F)C(=O)NC1c2cc(Cl)ccc2OCC1O)C(C)(C)C (stereo not shown) [Compound 22]	3.8	3.5	2.6	2.1		> 32000	26.4
COC(=O)N[C@H](C(=O)N[C@@H](Cc1ccc(-c2csc(OC)n2)cc1)[C@@H](O)C[C@@H](Cc1ccccc1F)C(=O)N[C@H]1c2cc(Cl)ccc2OC[C@H]1O)C(C)(C)C [Compound 29]	5.5	6.6	3.4	3.1		10000	13.7
COC(=O)N[C@H](C(=O)N[C@@H](Cc1ccc(-c2cnc(OC)nc2)cc1)[C@@H](O)C[C@@H](Cc1ccccc1F)C(=O)N[C@H]1c2cc(Cl)ccc2OC[C@H]1O)C(C)(C)C [Compound 48]	3.8	2.6	2.2	1.3	> 32000		7.5
COc1cccc(C[C@H](C[C@H](O)[C@H](Cc2ccc(-c3ccc(OC)nc3)cc2)NC(=O)O[C@H]2CO[C@H]3OCC[C@H]32)C(=O)N[C@H]2c3cc(Cl)ccc3OC[C@H]2O)c1 [Compound 70]	2.6	1.6	1.6	1.2	> 32000	> 32000	11.4
COC(=O)NC(C(=O)NC(Cc1ccc(-c2ccc(N(C)C)nc2)cc1)C(O)CC(Cc1cccc(Cl)c1)C(=O)NC1c2cc(F)ccc2OCC1O)C(C)(C)C (stereo not shown) [Compound 13]	4.7	4.6	3	2.4		> 32000	22.6
COC(=O)NC(C(=O)NC(Cc1ccc(-c2cnc(OC)cn2)cc1)C(O)CC(Cc1ccccc1F)C(=O)NC1c2cc(Cl)ccc2OCC1O)C(C)(C)C (stereo not shown) [Compound 23]	3	3.7	2.4	2		19000	12.3
COC(=O)N[C@H](C(=O)N[C@@H](Cc1ccc(-c2cnc(N(C)C)nc2)cc1)[C@@H](O)C[C@@H](Cc1cccc(F)c1)C(=O)N[C@H]1c2cc(F)ccc2OC[C@H]1O)C(C)(C)C [Compound 62]	3.2	2.2	1.5	0.9	> 32000		16.3
COC(=O)N[C@H](C(=O)N[C@@H](Cc1ccc(-c2ccc(OC)nc2)cc1)[C@@H](O)C[C@@H](Cc1cccc(F)c1)C(=O)N[C@H]1c2cccc(F)c2OC[C@H]1O)C(C)(C)C [Compound 40]	2.4	1.6	1	0.8	> 32000	> 32000	11.2
CCc1ncc(-c2ccc(C[C@H](NC(=O)[C@@H](NC(=O)OC)C(C)(C)C)[C@@H](O)C[C@@H](Cc3ccccc3F)C(=O)N[C@H](C(=O)NC)C(C)(C)C)cc2)s1 [Compound 84]	6.4	4.7	3.3	2.4		> 32000	28
COC(=O)NC(C(=O)NC(Cc1ccc(-c2ccc(OC)nc2)cc1)C(O)CC(Cc1ccccc1F)C(=O)NC1C(C)CCC1O)C(C)(C)C (stereo not shown) [Compound 99]	1.1	1.7	0.6	0.9	> 32000		3.3
COC(=O)N[C@H](C(=O)N[C@@H](Cc1ccc(-c2ccc(OC)nc2)cc1)[C@@H](O)C[C@@H](Cc1ccccc1F)C(=O)N[C@H]1c2cc(C)ccc2OC[C@H]1O)C(C)(C)C [Compound 66]	0.9	0.8	0.8	0.5	> 32000		7.7
COc1ccc(-c2ccc(C[C@H](NC(=O)O[C@H]3CO[C@H]4OCC[C@H]43)[C@@H](O)C[C@@H](Cc3ccccc3F)C(=O)N[C@H]3c4cccc(Cl)c4OC[C@H]3O)cc2)cn1 [Compound 75]	2.4	1.4	0.9	0.8	> 32000		9.3
